Values of other authors, collected in patent US20080096915A1, “COMPOSITIONS FOR THE TREATMENT OF METABOLIC DISORDERS” (Greenberg Traurig LLP, priority 2005, published 2008).

How the values were obtained:
patients = details: 150-200 mg/day cicletanine, over 12 months; fell from 128
hypertensives = tested on: hypertensives; parameters: dose or concentration left out as unconfirmed; details: 1050 hypertensives, for three months, dose doubled in one third; decreased from 176/104
[1] = tested on: patients whose blood pressure had not been normalized; details: cicletanine 50 and 100 mg per day added to calcium channel blockers, beta blockers or ACE inhibitors
[2] = tested on: Dahl salt-sensitive rats with salt-induced hypertension
sulfonylurea receptor = sulfonylurea receptor (Homo sapiens, UniProt Q09428)
sulfonylurea receptor, sequence (Q09428 whole entry): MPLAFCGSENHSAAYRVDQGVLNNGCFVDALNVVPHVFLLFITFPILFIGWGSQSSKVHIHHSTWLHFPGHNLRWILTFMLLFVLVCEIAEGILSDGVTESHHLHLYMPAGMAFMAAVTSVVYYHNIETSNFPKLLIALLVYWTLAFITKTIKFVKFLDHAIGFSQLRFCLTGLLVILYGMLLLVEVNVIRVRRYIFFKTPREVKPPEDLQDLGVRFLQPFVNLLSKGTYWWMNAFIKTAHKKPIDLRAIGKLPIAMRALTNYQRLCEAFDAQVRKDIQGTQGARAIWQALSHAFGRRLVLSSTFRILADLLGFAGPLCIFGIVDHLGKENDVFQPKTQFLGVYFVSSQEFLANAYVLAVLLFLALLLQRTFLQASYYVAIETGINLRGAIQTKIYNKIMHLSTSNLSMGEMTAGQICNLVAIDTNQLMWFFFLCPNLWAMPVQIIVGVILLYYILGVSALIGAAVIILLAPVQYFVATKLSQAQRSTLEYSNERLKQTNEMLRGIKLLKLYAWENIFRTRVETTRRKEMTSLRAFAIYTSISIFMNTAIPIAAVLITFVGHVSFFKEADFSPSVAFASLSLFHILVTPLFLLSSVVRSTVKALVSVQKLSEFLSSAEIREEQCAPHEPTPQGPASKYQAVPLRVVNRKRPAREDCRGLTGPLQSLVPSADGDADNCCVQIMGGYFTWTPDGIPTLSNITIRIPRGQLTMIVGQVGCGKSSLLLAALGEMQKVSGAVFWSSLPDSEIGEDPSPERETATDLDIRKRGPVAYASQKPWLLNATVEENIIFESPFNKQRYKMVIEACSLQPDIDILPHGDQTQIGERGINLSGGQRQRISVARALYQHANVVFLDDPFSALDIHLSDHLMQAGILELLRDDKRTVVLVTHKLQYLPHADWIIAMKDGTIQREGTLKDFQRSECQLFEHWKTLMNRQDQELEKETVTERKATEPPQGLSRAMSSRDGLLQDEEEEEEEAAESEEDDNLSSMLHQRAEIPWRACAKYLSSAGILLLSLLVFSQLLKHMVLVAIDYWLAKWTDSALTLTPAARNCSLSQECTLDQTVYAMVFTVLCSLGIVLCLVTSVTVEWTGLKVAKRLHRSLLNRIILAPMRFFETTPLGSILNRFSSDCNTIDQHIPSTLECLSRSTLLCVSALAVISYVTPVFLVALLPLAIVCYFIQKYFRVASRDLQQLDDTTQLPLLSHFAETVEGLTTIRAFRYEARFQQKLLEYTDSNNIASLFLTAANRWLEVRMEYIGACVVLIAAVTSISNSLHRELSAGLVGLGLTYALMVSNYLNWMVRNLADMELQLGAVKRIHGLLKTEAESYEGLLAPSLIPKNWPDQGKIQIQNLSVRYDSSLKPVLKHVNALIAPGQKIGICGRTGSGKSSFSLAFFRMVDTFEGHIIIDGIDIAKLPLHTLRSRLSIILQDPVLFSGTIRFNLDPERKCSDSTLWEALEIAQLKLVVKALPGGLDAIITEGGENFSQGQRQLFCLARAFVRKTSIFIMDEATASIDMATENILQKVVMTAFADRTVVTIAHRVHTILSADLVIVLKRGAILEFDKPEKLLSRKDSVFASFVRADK
sulfonylurea receptor, sequence (Q14654 whole entry partner): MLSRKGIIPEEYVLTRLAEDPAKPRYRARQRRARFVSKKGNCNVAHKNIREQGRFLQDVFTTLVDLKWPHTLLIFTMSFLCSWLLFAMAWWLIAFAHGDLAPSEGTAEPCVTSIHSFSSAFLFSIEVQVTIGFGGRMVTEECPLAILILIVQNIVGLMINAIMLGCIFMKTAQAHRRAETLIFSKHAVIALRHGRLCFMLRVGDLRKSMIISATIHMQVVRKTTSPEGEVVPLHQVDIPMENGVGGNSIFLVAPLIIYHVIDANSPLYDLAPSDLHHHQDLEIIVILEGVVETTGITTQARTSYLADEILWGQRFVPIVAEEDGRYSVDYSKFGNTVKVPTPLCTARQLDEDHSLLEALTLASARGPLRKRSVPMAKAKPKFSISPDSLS

[3] = in vivo

## Cc1ncc2c(c1O)COC2c1ccc(Cl)cc1 (racemic) [cicletanine, +−3-(4-chlorophenyl)-1,3-dihydro-6-methylfuro-[3,4-c]pyridin-7-ol]
patients
  average triglyceride level after treatment: 104 mg/dL
Healthy subjects; 10 healthy subjects, single intravenous tolbutamide after 7 days of cicletanine 100 mg per day
  peak insulin response to tolbutamide, following cicletanine administration: 17.4 mU/L
Healthy subjects; after 7 days of cicletanine 100 mg per day
  hypoglycemic effect of tolbutamide following cicletanine administration: did not change
hypertensives
  blood pressure after treatment: 151/86
[1]
  patients whose blood pressure was normalized: 50 % of patients
[2]
  high-density lipoprotein (HDL) cholesterol: increased
  low-density lipoprotein (LDL) cholesterol: significantly decreased

## Cc1cnc(C(=O)NCCc2ccc(S(=O)(=O)NC(=O)NC3CCCCC3)cc2)cn1 [glipizide]
Sulfonylurea receptor
  concentration range that saturates receptors: low nanomolar

## COc1ccc(Cl)cc1C(=O)NCCc1ccc(S(=O)(=O)NC(=O)NC2CCCCC2)cc1 [glyburide]
[3]
  plasma half-life: 4 to 11 h

## CCCCNC(=O)NS(=O)(=O)c1ccc(C)cc1 [tolbutamide]
Healthy subjects; 10 healthy subjects, single intravenous dose of tolbutamide alone
  peak insulin response to tolbutamide, before cicletanine administration: 29.2 mU/L
